In US6254882A, “Methods and compositions for treating pulmonary disorders using optically pure (S)--salmeterol” (Sepracor Inc., priority 1997, dated 2001):

Tests used:
[1] = test system: isolated guinea pig tracheal strips; test: Relaxation of histamine-contracted isolated guinea pig tracheal strips; parameters: species or system guinea pig (male Hartley); conditions: for EC50: Cavia porcellus, % of maximum relaxation by 1 mM papaverine, tested up to 1000 nM, r(log-lin) = 0.9453-0.9968, (S)-salmeterol extrapolated from three data points, read-out: EC50 Tracheal Relaxation, determined by linear regression of percent maximum response
[2] = test system: isolated guinea pig right atria; test: Chronotropic effect on isolated guinea pig right atria (atrial rate); parameters: species or system guinea pig (male Hartley); conditions: for EC50: Cavia porcellus, % of rate produced by 1 μM forskolin, tested up to 1000 nM, r(log-lin) = 0.9453-0.9968, read-out: EC50 Atrial Rate, determined by linear regression of percent maximum response
[3] = as described in the PDR, even by inhalation; cited from earlier work
human β2 AR = human β2 AR (Homo sapiens, UniProt P07550); test: Competitive binding to human β2-adrenergic receptor ([125I]iodopindolol, Sf9 cell membranes); conditions: radioligand [125I]iodopindolol; read-out: Kd for radioligand binding to human β2 ARs
human β1 AR = human β1 AR (Homo sapiens, UniProt P08588); test: Competitive binding to human β1-adrenergic receptor ([125I]iodopindolol, Sf9 cell membranes); conditions: radioligand [125I]iodopindolol; read-out: Kd for radioligand binding to human β1 ARs
human β1 AR, sequence (P08588 whole entry): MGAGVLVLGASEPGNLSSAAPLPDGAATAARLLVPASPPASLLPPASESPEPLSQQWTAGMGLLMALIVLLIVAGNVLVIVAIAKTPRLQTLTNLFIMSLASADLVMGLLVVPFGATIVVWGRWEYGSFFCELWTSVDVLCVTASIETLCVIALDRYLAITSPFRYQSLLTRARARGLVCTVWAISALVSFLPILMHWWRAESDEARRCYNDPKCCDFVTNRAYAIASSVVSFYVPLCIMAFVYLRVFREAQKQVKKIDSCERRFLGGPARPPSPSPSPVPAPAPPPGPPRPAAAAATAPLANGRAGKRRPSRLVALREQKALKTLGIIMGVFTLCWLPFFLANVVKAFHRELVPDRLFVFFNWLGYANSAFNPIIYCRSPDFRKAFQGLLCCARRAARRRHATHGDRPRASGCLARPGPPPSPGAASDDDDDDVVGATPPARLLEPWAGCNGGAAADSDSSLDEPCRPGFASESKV

human β2 AR, sequence (P07550 whole entry): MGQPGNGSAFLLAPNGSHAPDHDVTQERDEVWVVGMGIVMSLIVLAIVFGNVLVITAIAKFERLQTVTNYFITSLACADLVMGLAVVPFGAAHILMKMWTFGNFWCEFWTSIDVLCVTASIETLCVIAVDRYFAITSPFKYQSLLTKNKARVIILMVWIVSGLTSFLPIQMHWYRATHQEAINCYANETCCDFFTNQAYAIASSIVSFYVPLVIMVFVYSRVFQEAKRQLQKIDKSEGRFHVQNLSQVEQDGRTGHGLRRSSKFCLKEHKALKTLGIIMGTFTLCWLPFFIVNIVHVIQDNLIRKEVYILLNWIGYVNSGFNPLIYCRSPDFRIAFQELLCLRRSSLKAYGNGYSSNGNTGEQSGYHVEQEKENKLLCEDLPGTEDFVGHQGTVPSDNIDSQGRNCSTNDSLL

With `OCc1cc([C@H](O)CNCCCCCCOCCCCc2ccccc2)ccc1O` [(S)-Salmeterol, S enantiomer of 4-hydroxy-α^1 - [[[6(4-phenylbutoxy)-hexyl]amino]methyl]-1,3-benzenedimethanol] the EC50 [1] was 3150 nM, the “potency for tracheal relaxation compared with (S,S)-formoterol” value ([1]; extrapolated from three data points) was “equivalent in potency” and the “efficacy with respect to tracheal relaxation” value ([1]; in words) was “full efficacy could be achieved”. For the same compound, the “potency for tracheal relaxation compared with racemic formoterol or its (R,R)-enantiomer” value ([1]; in words) was “significantly less potent” and the “effect on atrial rate compared with vehicle control” value ([2]; in words) was “essentially the same effect on atrial rate as the vehicle control”.

Compound `CC(C)(C)NC[C@@H](O)c1ccc(O)c(CO)c1` [(S)-Albuterol] has an EC50 [1] of 100000 nM and an EC50 [2] greater than 10000 nM.

For `OCc1cc(C(O)CNCCCCCCOCCCCc2ccccc2)ccc1O` (racemic) [(RS)-Salmeterol, 4-hydroxy-α^1 - [[[6(4-phenylbutoxy)-hexyl]amino]methyl]-1,3-benzenedimethanol], the adverse effects [3] is listed as “tachycardia, palpitations, urticaria, angioedema, rash, bronchospasms, headache, tremors, nervousness, and paradoxical bronchospasms”, the EC50 [1] is listed as 273 nM and the EC50 [2] is listed as 3520 nM.

In the case of `CC(C)(C)NC[C@H](O)c1ccc(O)c(CO)c1` [(R)-Albuterol], the EC50 [1] is reported as 747 nM, the “potency for tracheal relaxation relative to (S)-salmeterol” value ([1]; relative to (S)-salmeterol) is reported as “approximately four” and the EC50 [2] is reported as 177 nM.

With `COc1ccc(Cc2nccc3cc(OC)c(OC)cc23)cc1OC` [papaverine] the “relaxation of histamine-contracted tracheal strips” value ([1]; 1 mM papaverine) was “complete relaxation”.

With `C=C[C@@]1(C)CC(=O)[C@]2(O)[C@@]3(C)[C@@H](O)CCC(C)(C)[C@@H]3[C@H](O)[C@H](OC(C)=O)[C@@]2(C)O1` [forskolin] the “rate of spontaneous contraction of right atria” value ([2]; 1 μM forskolin, basal roughly 140-170 bpm) was 195-250 bpm.

Compound `CC(C)(C)NCC(O)c1ccc(O)c(CO)c1` (racemic) [(RS)-Albuterol] has an EC50 [1] of 673 nM and an EC50 [2] of 272 nM.

Compound `CC(C)NC[C@H](O)COc1cccc2[nH]cc(I)c12` [[^125 l] iodopindolol] has a Kd (human β2 AR) of 0.02 nM and a Kd (human β1 AR) of 2 nM.

In the case of `OCc1cc([C@@H](O)CNCCCCCCOCCCCc2ccccc2)ccc1O` [(R)-Salmeterol], the EC50 [1] is reported as 149 nM and the EC50 [2] is reported as 1730 nM.
